Values of other authors as cited in patent US20050058675A1, “Fullerene compositions for ameliorating dermatological conditions” (priority 2003, published 2005).

Test system: mice
Conditions: oral, about 0.5 mg/kg/day

Substance: C60(>C(COOH)2)3 [C3]
- increase in mean survival relative to controls: ~20%
- mean survival (controls 23.5+/−5.5 months, p=0.033): 28.7+/−3.3 months
